The text below walks through data of ChEMBL document CHEMBL1123618, “alpha,alpha-Difluoro-beta-aminodeoxystatine-containing renin inhibitory peptides” (J Med Chem, 1987).

By IC50 is commonly meant the concentration that gives 50% inhibition. Read a low IC50 as higher potency.

For this test, the target named is T1, Renin (Homo sapiens, UniProt P00797).
T1 sequence (P00797 whole entry): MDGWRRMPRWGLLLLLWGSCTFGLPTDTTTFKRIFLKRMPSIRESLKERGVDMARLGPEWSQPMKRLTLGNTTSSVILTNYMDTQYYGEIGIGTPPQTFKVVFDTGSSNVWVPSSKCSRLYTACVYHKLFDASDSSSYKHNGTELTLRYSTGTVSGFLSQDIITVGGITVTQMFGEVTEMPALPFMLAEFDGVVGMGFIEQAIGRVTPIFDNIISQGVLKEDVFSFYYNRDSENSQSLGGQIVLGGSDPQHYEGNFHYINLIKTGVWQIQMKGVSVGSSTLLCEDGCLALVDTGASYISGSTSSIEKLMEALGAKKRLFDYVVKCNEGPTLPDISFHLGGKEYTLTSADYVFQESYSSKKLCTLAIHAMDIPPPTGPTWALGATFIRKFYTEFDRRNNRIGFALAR
Nature of the test: Inhibitory activity against human plasma renin. Type of test: cell-free.
Regarding `CC[C@H](C)[C@H](NC(=O)C[C@@H](O)[C@H](CC(C)C)NC(=O)[C@H](Cc1c[nH]cn1)NC(=O)[C@H](Cc1ccccc1)NC(=O)OC(C)(C)C)C(=O)NCc1ccccn1`, the midpoint of inhibition, the IC50, lay at 330 nM.

`CC[C@H](C)[C@H](NC(=O)C(F)(F)[C@H](N)[C@H](CC(C)C)NC(=O)[C@H](Cc1cnc[nH]1)NC(=O)[C@H](Cc1ccccc1)NC(=O)OC(C)(C)C)C(=O)NCc1ccccn1` displayed a half-inhibitory concentration (IC50) of 340 nM.

On to `CC[C@H](C)[C@H](NC(=O)C[C@H](N)[C@H](CC(C)C)NC(=O)[C@H](Cc1c[nH]cn1)NC(=O)[C@H](Cc1ccccc1)NC(=O)OC(C)(C)C)C(=O)NCc1ccccn1`, for which the IC50 amounted to 15 nM.

Compound `CC[C@H](C)[C@H](NC(=O)C(F)(F)[C@@H](N)[C@H](CC(C)C)NC(=O)[C@H](Cc1cnc[nH]1)NC(=O)[C@H](Cc1ccccc1)NC(=O)OC(C)(C)C)C(=O)NCc1ccccn1` registered an IC50 of 2800 nM.

`CC[C@H](C)[C@H](NC(=O)C[C@@H](N)[C@H](CC(C)C)NC(=O)[C@H](Cc1c[nH]cn1)NC(=O)[C@H](Cc1ccccc1)NC(=O)OC(C)(C)C)C(=O)NCc1ccccn1` had an IC50 of 480 nM.
